Literature values in patent US20130220225A1, “BAITING METHOD AND COMPOSITION” (priority 2008, published 2013).
Where two headings read alike, the source gives them in different places.

Assays:
[1] = test system: Quail (Coturnix coturnix); settings: Oral
[2] = test system: Guinea pig (female) (Cavellio porcinus); settings: Oral
[3] = test system: Skunk (Mephitis mephitis); settings: Oral
[4] = test system: Cat (Fellis libyca domestica); settings: Oral
[5] = test system: Stoats (Mustela erminea); settings: Oral
[6] = test system: Ferret (Mustela putoris furo); settings: Oral
[7] = test system: Tammar wallaby (Macropus eugenii); settings: Oral
[8] = test system: Mouse (Mus domesticus)
[9] = test system: Rat (male) (Rattus norvegicus); settings: Oral
[10] = test system: Raccoon (Procyon lotor); settings: Oral
[11] = test system: Crow (Corvus brachyrhynchos); settings: Oral
[12] = test system: Mallard (duck) (Anas platyrhrynchos); settings: Oral
[13] = test system: Starling (Sturnus vulgaris); settings: Oral
[14] = test system: Eagle (Aquila chrysaetos); settings: Oral
[15] = test system: Bobcat (Lynx rufus); settings: Oral
[16] = test system: Fox (kit) (Vulpes velox); settings: Oral
[17] = test system: Brushtail Possum (Trichosaurus vulpecula); settings: Oral
[18] = test system: Badger (Nth Am.) (Taxidea taxus); settings: Oral
[19] = test system: Magpie (black-billed) (Pica pica); settings: Oral
[20] = test system: Blackbird (red-wing) (Agelaius phoenicus); settings: Oral
[21] = test system: Coyote (Canis latrans); settings: Oral

Which LD50 [1] does the source give for CCC(=O)c1ccc(N)cc1 [p-aminopropiophenone] here?
The LD50 was >316 mg/kg.

And the LD50 [2]?
Its LD50 is 1020 mg/kg.

What about the LD50 [3] of the same compound?
The LD50 was >400 mg/kg.

What about the LD50 [4] of the same compound?
The LD50 was 5.6 mg/kg.

And the LD50 [5]?
Its LD50 is 9.3 mg/kg.

And the LD50 [6]?
Its LD50 is 29 mg/kg.

What about the LD50 [7] of the same compound?
The LD50 was 89 mg/kg.

And the LD50 ([8]; Mouse (female), I.V.)?
The LD50 was 200 mg/kg.

What about the LD50 ([8]; Mouse (female), Oral) of the same compound?
The LD50 was >5,000 mg kg^−1.

What about the LD50 ([8]; Mouse (male), I.V.) of the same compound?
Its LD50 is 145 mg/kg.

And the LD50 ([8]; Mouse (sex not given), Oral)?
The LD50 was 233 mg/kg.

What about the LD50 [9] of the same compound?
Its LD50 is 177 mg/kg.

And the LD50 [10]?
Its LD50 is 142 mg/kg.

And the LD50 [11]?
Its LD50 is >178 mg/kg.

What about the LD50 [12] of the same compound?
The LD50 was 38 mg/kg.

What about the LD50 [13] of the same compound?
The LD50 was >316 mg/kg.

And the LD50 [14]?
Its LD50 is >50 mg/kg.

What about the LD50 [15] of the same compound?
The LD50 was 10 mg/kg.

What about the LD50 [16] of the same compound?
Its LD50 is 14.1 mg/kg.

What about the LD50 [17] of the same compound?
Its LD50 is 500 mg/kg.

And the LD50 [18]?
Its LD50 is 100 mg/kg.

And the LD50 [19]?
The LD50 was 178 mg/kg.

And the LD50 [20]?
Its LD50 is 133 mg/kg.

What about the LD50 [21] of the same compound?
Its LD50 is 5.6 mg/kg.
